Assays:
EED (1-441)-His protein = EED (1-441)-His protein (Homo sapiens (Human), UniProt O75530); test: EED-H3K27Me3 peptide competition binding assay by AlphaScreen; conditions: read-out: (a) IC50 EED Alphascreen binding Qualified
Description: EED-H3K27Me3 peptide competition binding assay by AlphaScreen (α-screen)

[1] = target: wild type PRC2 (wtPRC2) complex (Homo sapiens (Human), UniProt O75530); test: EED LC-MS assay; format: biochemical; conditions: read-out: (b) IC50 EED LC-MS Qualified
Description: A 6 μL solution of 3 μM of the peptide substrate H3K27Me0 (histone H3[21-44]-biotin) in reaction buffer was added to initiate each reaction. […] ELISA (H3K27 Methylation) Assay

Chain of wild type PRC2 (wtPRC2) complex (O75530 whole entry): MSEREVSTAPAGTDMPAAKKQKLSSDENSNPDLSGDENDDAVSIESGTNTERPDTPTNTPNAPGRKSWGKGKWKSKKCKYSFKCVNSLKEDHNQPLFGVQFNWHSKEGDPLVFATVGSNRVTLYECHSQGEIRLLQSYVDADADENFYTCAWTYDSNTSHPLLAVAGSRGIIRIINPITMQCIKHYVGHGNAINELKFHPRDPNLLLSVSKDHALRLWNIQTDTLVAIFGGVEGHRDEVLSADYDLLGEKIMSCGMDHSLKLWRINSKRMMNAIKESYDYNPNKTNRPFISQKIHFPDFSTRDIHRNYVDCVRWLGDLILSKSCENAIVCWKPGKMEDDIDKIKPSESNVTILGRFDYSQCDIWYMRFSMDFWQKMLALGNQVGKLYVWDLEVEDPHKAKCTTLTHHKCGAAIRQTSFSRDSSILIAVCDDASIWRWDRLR
Chain of wild type PRC2 (wtPRC2) complex (Q15910 whole entry partner): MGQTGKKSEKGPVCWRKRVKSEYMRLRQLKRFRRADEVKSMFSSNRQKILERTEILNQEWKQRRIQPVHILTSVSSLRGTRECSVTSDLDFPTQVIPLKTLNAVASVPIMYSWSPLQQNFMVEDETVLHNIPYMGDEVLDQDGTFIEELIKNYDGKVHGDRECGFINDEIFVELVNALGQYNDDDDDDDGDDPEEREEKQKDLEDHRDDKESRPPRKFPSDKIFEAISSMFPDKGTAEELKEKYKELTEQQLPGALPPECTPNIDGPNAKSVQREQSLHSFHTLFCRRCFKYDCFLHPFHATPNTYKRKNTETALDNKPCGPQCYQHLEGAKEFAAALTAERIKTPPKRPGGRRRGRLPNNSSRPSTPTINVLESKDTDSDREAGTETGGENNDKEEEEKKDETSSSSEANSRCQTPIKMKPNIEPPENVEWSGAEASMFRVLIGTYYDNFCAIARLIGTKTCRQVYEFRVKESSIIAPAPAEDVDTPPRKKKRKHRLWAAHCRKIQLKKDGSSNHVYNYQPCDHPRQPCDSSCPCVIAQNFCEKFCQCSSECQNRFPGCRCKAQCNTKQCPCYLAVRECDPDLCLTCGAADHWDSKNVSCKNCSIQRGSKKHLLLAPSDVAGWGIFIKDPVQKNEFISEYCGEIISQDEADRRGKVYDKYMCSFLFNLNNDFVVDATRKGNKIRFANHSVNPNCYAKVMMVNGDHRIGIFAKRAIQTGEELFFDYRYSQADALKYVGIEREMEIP
Chain of wild type PRC2 (wtPRC2) complex (Q15022 whole entry partner): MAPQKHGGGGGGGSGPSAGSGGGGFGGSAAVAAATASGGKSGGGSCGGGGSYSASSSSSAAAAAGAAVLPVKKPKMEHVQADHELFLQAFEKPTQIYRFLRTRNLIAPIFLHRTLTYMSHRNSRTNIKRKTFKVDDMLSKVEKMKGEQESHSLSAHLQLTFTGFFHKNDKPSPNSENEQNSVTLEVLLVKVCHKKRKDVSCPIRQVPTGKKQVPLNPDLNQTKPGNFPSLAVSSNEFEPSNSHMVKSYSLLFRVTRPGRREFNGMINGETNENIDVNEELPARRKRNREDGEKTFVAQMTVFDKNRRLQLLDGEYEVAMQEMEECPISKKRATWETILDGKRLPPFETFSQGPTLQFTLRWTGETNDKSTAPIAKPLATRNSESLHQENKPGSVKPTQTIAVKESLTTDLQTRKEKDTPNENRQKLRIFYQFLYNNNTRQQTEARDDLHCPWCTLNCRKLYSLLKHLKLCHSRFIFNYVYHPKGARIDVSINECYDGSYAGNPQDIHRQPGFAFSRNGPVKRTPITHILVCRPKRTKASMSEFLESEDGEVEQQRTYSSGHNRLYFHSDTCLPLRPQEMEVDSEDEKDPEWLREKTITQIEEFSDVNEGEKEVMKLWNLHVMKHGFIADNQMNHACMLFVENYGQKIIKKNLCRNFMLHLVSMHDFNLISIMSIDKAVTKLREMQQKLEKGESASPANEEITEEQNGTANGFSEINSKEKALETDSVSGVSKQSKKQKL
Chain of EED (1-441)-His protein (O75530 whole entry): as the sequence (O75530 whole entry) above

| SMILES | IC50 (EED (1-441)-His protein) [nM] | IC50 [1] [nM] |
| --- | --- | --- |
| CCOc1ncc(-c2cnc(NCc3c(F)ccc4c3CCO4)n3cnnc23)c(C)n1 [Example 226, 8-(2-ethoxy-4-methylpyrimidin-5-yl)-N-((5-fluoro-2,3-dihydrobenzofuran-4-yl)methyl)-[1,2,4]triazolo[4,3-c]pyrimidin-5-amine] | 3.9 | 5 |
| CN(C)Cc1ccc(-c2cnc(NCc3cccc4occc34)n3cnnc23)cc1 [Example 208, N-(benzofuran-4-ylmethyl)-8-(4-((dimethylamino)methyl)phenyl)-[1,2,4]triazolo[4,3-c]pyrimidin-5-amine] | 6.2 | 12.7 |
| Cc1nc(S(C)(=O)=O)ccc1-c1cnc(NCc2c(F)ccc3c2CCO3)n2cnnc12 [Example 139, N-((5-fluoro-2,3-dihydrobenzofuran-4-yl)methyl)-8-(2-methyl-6-(methylsulfonyl)pyridin-3-yl)-[1,2,4]triazolo[4,3-c]pyrimidin-5-amine] | 1.7 | 6 |
| Cc1nn(C(C)C)c(C)c1-c1cnc(NCc2c(F)ccc3c2CCO3)n2cnnc12 [Example 151, N-((5-fluoro-2,3-dihydrobenzofuran-4-yl)methyl)-8-(1-isopropyl-3,5-dimethyl-1H-pyrazol-4-yl)-[1,2,4]triazolo[4,3-c]pyrimidin-5-amine] | 13.1 | 21.6 |
| CCc1cc(C)c(-c2cnc(NCc3c(F)ccc4c3CCO4)n3cnnc23)cn1 [Example 224, 8-(6-ethyl-4-methylpyridin-3-yl)-N-((5-fluoro-2,3-dihydrobenzofuran-4-yl)methyl)-[1,2,4]triazolo[4,3-c]pyrimidin-5-amine] | 1.5 | 1.9 |
| Cc1cc(-c2cnc(NCc3c(F)ccc4c3CCO4)n3cnnc23)c(C)cn1 [Example 194, 8-(2,5-dimethylpyridin-4-yl)-N-((5-fluoro-2,3-dihydrobenzofuran-4-yl)methyl)-[1,2,4]triazolo[4,3-c]pyrimidin-5-amine] | 2.4 | 7 |
| CN(C)Cc1ccc(-c2cnc(NCc3c(F)ccc4occc34)n3cnnc23)cc1 [Example 219, 8-(4-((dimethylamino)methyl)phenyl)-N-((5-fluorobenzofuran-4-yl)methyl)-[1,2,4]triazolo[4,3-c]pyrimidin-5-amine] | 6.5 | 6.8 |
| Cc1c(-c2cnc(NCc3c(F)ccc4c3CCO4)n3cnnc23)ccnc1C(F)F [Example 181, 8-(2-(difluoromethyl)-3-methylpyridin-4-yl)-N-((5-fluoro-2,3-dihydrobenzofuran-4-yl)methyl)-[1,2,4]triazolo[4,3-c]pyrimidin-5-amine] | 2.6 | 6 |
| Cc1c(-c2cnc(NCc3c(F)ccc4c3CCO4)n3cnnc23)ccnc1CF [Example 182, N-((5-fluoro-2,3-dihydrobenzofuran-4-yl)methyl)-8-(2-(fluoromethyl)-3-methylpyridin-4-yl)-[1,2,4]triazolo[4,3-c]pyrimidin-5-amine] | 3.1 | 5.6 |
| COc1nccc(-c2cnc(NCc3c(F)ccc4c3CCO4)n3cnnc23)c1C [Example 230, N-((5-fluoro-2,3-dihydrobenzofuran-4-yl)methyl)-8-(2-methoxy-3-methylpyridin-4-yl)-[1,2,4]triazolo[4,3-c]pyrimidin-5-amine] | 12.9 | 24.5 |

More lines, now with the values ahead:

| IC50 (EED (1-441)-His protein) [nM] | IC50 [1] [nM] | SMILES |
| --- | --- | --- |
| 136 | 346 | c1cc(CNc2ncc(-c3cncnc3)c3nncn23)c2c(c1)OCC2 [Example 51, N-((2,3-dihydrobenzofuran-4-yl)methyl)-8-(pyrimidin-5-yl)-[1,2,4]triazolo[4,3-c]pyrimidin-5-amine] |
| 6.3 | 13 | Nc1cc(F)c(-c2cnc(NCc3cccc4c3CCO4)n3cnnc23)cn1 [Example 58, 8-(6-amino-4-fluoropyridin-3-yl)-N-((2,3-dihydrobenzofuran-4-yl)methyl)-[1,2,4]triazolo[4,3-c]pyrimidin-5-amine] |
| 11.1 | 27.6 | CS(=O)(=O)c1ccc(-c2cnc(NCc3cccc4c3CCO4)n3cnnc23)cn1 [Example 28, N-((2,3-dihydrobenzofuran-4-yl)methyl)-8-(6-(methylsulfonyl)pyridin-3-yl)-[1,2,4]triazolo[4,3-c]pyrimidin-5-amine] |
| 29.1 | 54.6 | COc1ncc(-c2cnc(NCc3cccc4c3CCO4)n3cnnc23)cn1 [Example 54, N-((2,3-dihydrobenzofuran-4-yl)methyl)-8-(2-methoxypyrimidin-5-yl)-[1,2,4]triazolo[4,3-c]pyrimidin-5-amine] |
| 11.3 | 18.6 | Fc1ccccc1-c1cnc(NCc2c(F)ccc3c2CCO3)n2cnnc12 [Example 94, N-((5-fluoro-2,3-dihydrobenzofuran-4-yl)methyl)-8-(2-fluorophenyl)-[1,2,4]triazolo[4,3-c]pyrimidin-5-amine] |
| 12.9 | 30.2 | Nc1ccc(-c2cnc(NCc3cccc4c3CCO4)n3cnnc23)cn1 [Example 48, 8-(6-aminopyridin-3-yl)-N-((2,3-dihydrobenzofuran-4-yl)methyl)-[1,2,4]triazolo[4,3-c]pyrimidin-5-amine] |
| 57.5 | 103 | CNC(=O)c1ccc(-c2cnc(NCc3cccc4c3CCO4)n3cnnc23)cn1 [Example 79, 5-(5-(((2,3-dihydrobenzofuran-4-yl)methyl)amino)-[1,2,4]triazolo[4,3-c]pyrimidin-8-yl)-N-methylpicolinamide] |
| 8.1 | 14.5 | O=S(=O)(c1ccc(-c2cnc(NCc3cccc4c3CCO4)n3cnnc23)cc1)C1CCNCC1 [Example 29, N-((2,3-dihydrobenzofuran-4-yl)methyl)-8-(4-(piperidin-4-ylsulfonyl)phenyl)-[1,2,4]triazolo[4,3-c]pyrimidin-5-amine] |
| 26.9 | 32.6 | Cc1cc(-c2cnc(NCc3cccc4c3CCO4)n3cnnc23)cnc1N1CCNC(=O)C1 [Example 105, 4-(5-(5-(((2,3-dihydrobenzofuran-4-yl)methyl)amino)-[1,2,4]triazolo[4,3-c]pyrimidin-8-yl)-3-methylpyridin-2-yl)piperazin-2-one] |
| 14.6 | 19.1 | c1cc(CNc2ncc(-c3ccc(N4CCSCC4)nc3)c3nncn23)c2c(c1)OCC2 [Example 81, N-((2,3-dihydrobenzofuran-4-yl)methyl)-8-(6-thiomorpholinopyridin-3-yl)-[1,2,4]triazolo[4,3-c]pyrimidin-5-amine] |
| 4 | 6.6 | Fc1ccc2c(c1CNc1ncc(-c3ccc(C4CC4)nc3)c3nncn13)CCO2 [Example 119, 8-(6-cyclopropylpyridin-3-yl)-N-((5-fluoro-2,3-dihydrobenzofuran-4-yl)methyl)-[1,2,4]triazolo[4,3-c]pyrimidin-5-amine] |
| 18.9 | 19.2 | CS(=O)(=O)Nc1ccc(-c2cnc(NCc3cccc4c3CCO4)n3cnnc23)cc1 [Example 19, N-(4-(5-(((2,3-dihydrobenzofuran-4-yl)methyl)amino)-[1,2,4]triazolo[4,3-c]pyrimidin-8-yl)phenyl)methanesulfonamide] |
| 10 | 15.4 | Fc1ccc2c(c1CNc1ncc(-c3cnccc3Cl)c3nncn13)CCO2 [Example 124, 8-(4-chloropyridin-3-yl)-N-((5-fluoro-2,3-dihydrobenzofuran-4-yl)methyl)-[1,2,4]triazolo[4,3-c]pyrimidin-5-amine] |
